Results from ChEMBL document CHEMBL1201862, “PubChem BioAssay data set” (2004).
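96-well plates; 48 h exposure; 5 concentrations. Endpoints by linear interpolation between flanking doses. Not reached: highest tested concentration assigned. GI50: concentration for 50% inhibition of growth.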 Active and inactive are the calls of the source. Cut-off read from the data, not from the text of the source: active = GI50 up to about 1.1 µM and inactive = higher.

Assays:
Experiment in all cases: growth of human tumour cells (NCI), 48 h
M14 = tested on: M14
UACC-62 = tested on: UACC-62
OVCAR-8 = tested on: OVCAR-8
HL-60 = tested on: HL-60
786-0 = tested on: 786-0
SN12C = tested on: SN12C
SF-268 = tested on: SF-268
HT-29 = tested on: HT-29
SNB-19 = tested on: SNB-19
NCI-H460 = tested on: NCI-H460
SK-MEL-5 = tested on: SK-MEL-5
SNB-78 = tested on: SNB-78
LOX IMVI = tested on: LOX IMVI
HCT-116 = tested on: HCT-116
KM12 = tested on: KM12
OVCAR-3 = tested on: OVCAR-3
HCT-15 = tested on: HCT-15
SNB-75 = tested on: SNB-75
A498 = tested on: A498
BT-549 = tested on: BT-549

Measured: GI50

Cn1cc(NC(=O)c2cc(NC(=O)CCCCCCC(=O)Nc3cc(C(=O)Nc4cc(C(=O)NCCC(=N)N)n(C)c4)n(C)c3)cn2C)cc1C(=O)NCCC(=N)N
32 µM: HCT-15
inactive: M14 16 µM | UACC-62 7.6 µM | OVCAR-8 16.3 µM | HL-60 2.84 µM | 786-0 12.9 µM | SN12C 3.84 µM | SF-268 18.7 µM | HT-29 73.6 µM | SNB-19 29.2 µM | NCI-H460 3.68 µM | SK-MEL-5 1.92 µM | SNB-78 24.2 µM | LOX IMVI 5.75 µM | HCT-116 8.53 µM | KM12 2.92 µM | OVCAR-3 24.5 µM | SNB-75 10.1 µM | A498 1.93 µM

O=C1c2ccccc2C(=O)c2c(/C=C\N3CCCCC3)ccnc21
inactive: OVCAR-8 2.15 µM | HL-60 3.01 µM | 786-0 6.35 µM | SN12C 1.4 µM | SF-268 12 µM | HT-29 5.57 µM | SNB-19 4.91 µM | NCI-H460 1.3 µM | SNB-78 18.7 µM | KM12 3.97 µM | OVCAR-3 1.75 µM | SNB-75 2.01 µM | A498 8.99 µM
0.582 µM: HCT-15
active: M14 0.578 µM | UACC-62 0.659 µM | SK-MEL-5 0.42 µM | LOX IMVI 0.337 µM | HCT-116 1.06 µM | BT-549 0.889 µM

Cc1ccc(C(=O)O)cc1NC(=O)c1cc(/C=C/c2ccccc2)[nH]c(=S)n1
inactive: M14 > 100 µM | UACC-62 > 100 µM | OVCAR-8 > 100 µM | HL-60 > 69 µM | 786-0 > 64.3 µM | SN12C > 100 µM | SF-268 > 100 µM | HT-29 > 64.4 µM | SNB-19 > 100 µM | NCI-H460 > 100 µM | SK-MEL-5 > 100 µM | SNB-78 > 100 µM | LOX IMVI > 100 µM | HCT-116 > 37.8 µM | KM12 > 100 µM | OVCAR-3 > 100 µM | SNB-75 > 100 µM | A498 > 100 µM
> 45 µM: HCT-15

N=C(N)C1=C(O)NC(=O)N(C2CCCCC2)C1
inactive: M14 > 100 µM | UACC-62 > 100 µM | OVCAR-8 > 100 µM | HL-60 > 100 µM | 786-0 > 100 µM | SN12C > 100 µM | SF-268 > 100 µM | HT-29 > 100 µM | SNB-19 > 100 µM | NCI-H460 > 100 µM | SK-MEL-5 > 100 µM | SNB-78 > 100 µM | LOX IMVI > 100 µM | HCT-116 > 100 µM | KM12 > 100 µM | OVCAR-3 > 100 µM | SNB-75 > 100 µM | A498 > 100 µM
> 100 µM: HCT-15

CS(=O)(=O)ON1C(=O)c2ccc(N)cc2C1=O
71.4 µM: HCT-15
inactive: M14 > 87.3 µM | UACC-62 > 64 µM | OVCAR-8 21.7 µM | HL-60 17.5 µM | 786-0 > 100 µM | SN12C > 100 µM | SF-268 > 50.6 µM | HT-29 > 79.3 µM | SNB-19 > 100 µM | NCI-H460 > 100 µM | SK-MEL-5 > 100 µM | SNB-78 > 100 µM | LOX IMVI > 72.6 µM | HCT-116 > 79.8 µM | KM12 > 100 µM | OVCAR-3 > 100 µM | SNB-75 > 100 µM | A498 > 100 µM

COc1cc([C@@H]2c3cc4c(cc3[C@@H](NC(=O)c3ccccc3)C3COC(=O)[C@@H]32)OCO4)cc(OC)c1O (some centres undefined)
active: UACC-62 0.568 µM | NCI-H460 0.361 µM
inactive: M14 5.57 µM | OVCAR-8 8.99 µM | HL-60 1.87 µM | 786-0 4.26 µM | SN12C 2.55 µM | SF-268 4.55 µM | HT-29 3.18 µM | SNB-19 19.4 µM | SK-MEL-5 2.31 µM | SNB-78 41.2 µM | LOX IMVI 2.52 µM | HCT-116 5.42 µM | KM12 7.28 µM | OVCAR-3 20.8 µM | SNB-75 5.43 µM | A498 6.1 µM
9.84 µM: HCT-15

CCN(CC)CCOC(c1ccccc1)c1ccccc1.CCOC(=O)Nc1ccc(S(=O)(=O)NCCCl)cc1.CCOC(=O)Nc1ccc(S(=O)(=O)NCCCl)cc1.Nc1ccc(C(=O)O)c(O)c1
inactive: M14 > 100 µM | UACC-62 > 100 µM | OVCAR-8 > 100 µM | HL-60 > 100 µM | 786-0 > 100 µM | SN12C > 100 µM | SF-268 > 100 µM | HT-29 > 100 µM | SNB-19 > 100 µM | NCI-H460 > 100 µM | SK-MEL-5 > 100 µM | SNB-78 > 100 µM | LOX IMVI > 100 µM | HCT-116 > 100 µM | KM12 > 100 µM | OVCAR-3 > 100 µM | SNB-75 > 100 µM | A498 > 100 µM
> 100 µM: HCT-15
